From patent US12404285B2, “KRAS G12D proteolysis targeting chimeras” (PAQ Therapeutics Inc., priority 2022, dated 2025)

biological target: T1, KRAS in AGS cells (KRAS G12D mutant cell line) or LS180 cells (KRAS G12D mutant cell line) (Homo sapiens, UniProt P01116, G12D); experiment: KRAS Western Blot (WB) assay; format: cell-based; conditions: KRAS degradation, 24 hours incubation, normalized to β-actin
T1 construct: CRL-187 (LS180) (so in the source); host or cells: AGS or LS180 cells
Method: Day 1. Seeded AGS cells (KRAS G12D mutant cell line, ATCC, CRL-1739) or LS180 cells (KRAS G12D mutant cell line, ATCC, CRL-187) into 6-well plates (cell density: 3×10^5 cells/well/2 ml medium) in Ham's F-12 medium (Invitrogen, 11765-054) or Eagle's Minimum Essential Medium (ATCC, 30-2003) and incubated overnight at 37° C. and 5% CO2.
Day 2. Aspirated 1 ml medium from each well and added 1 ml medium containing DMSO or test compound into the well to achieve the desired final concentration. Mixed well by gentle shaking and incubated for 24 hours.
Day 3. Aspirated media from plates; washed cells with 2 ml 4° C. PBS (Solarbio, P1020-500) and aspirated the PBS. Then added 100 μl 4° C. […] lysis buffer (Boston BioProducts BP-115D) with protease and phosphatase inhibitors at vendor recommended concentrations (Roche 05892791001 and 04906837001) into each well to lyse the cells, and incubated for 20 minutes at 4° C. Cell lysate was collected into 1.5 ml Eppendorf tube, and the lysate was sonicated at 4° C. for 2 minutes (5 second pulse at 30% power with 10 second intermissions). The lysate was centrifuged at 12,000 rpm for 15 minutes at 4° C. The supernatant was transferred to a fresh Eppendorf tube, and protein concentration was quantified using a BCA kit (Solarbio, PC0020-500). Mixed the cell lysate and 5×NuPAGE SDS Loading Buffer (Beyotime, P0015L), and heated at 95° C. for 10 minutes in a heat block. Prepared samples were stored at −80° C. until SDS-PAGE procedure.
Day 4. Loaded 15 μg protein from each sample onto NuPAGE® Novex 4-12% Bis-Tris Midi Gel, 26 W (Invitrogen, WG1403BOX) and ran the gel at 120V for 1.5 hours in 1×NuPAGE® MOPS SDS Running Buffer (Novex, NP0001). Electrotransferred to nitrocellulose membrane using dry transfer method (iBlot 2 Transfer Stacks, nitrocellulose, IB23001) with a program consisting of 20V for 1 minute, 23V for 4 minutes and 25V for 2 minutes. Blocked the membrane with 5% BSA (Solarbio, A8020) in 1×TBST (CST, 9997S) for 1 hour at room temperature. Incubated with KRAS antibody (LSBio, LS-C175665, clone 2C1) at 1:1000 dilution and β-actin antibody at 1:1000 dilution (CST, 4970S) in TBST containing 1% BSA (Solarbio, A8020) at 4° C. overnight.
Day 5. Washed nitrocellulose membrane three times with 1×TBST for 10 minutes each at room temperature. Incubated with fluorescently labeled secondary antibodies at 1:5000 dilution in TBST containing 1% BSA (anti-rabbit IgG, Licor, 926-32211; anti-mouse IgG, LI-COR, 926-68070) for 1 hour at room temperature. Washed membrane three times with TBST, 10 minutes each. Scanned the membrane on LiCOR scanner for fluorescent signal(s) and quantified KRAS bands and β-actin bands for normalization.
The data are reported in Table 2, wherein “A” indicates a DC50 of less than 1 μM; “B” indicates a DC50 of greater than or equal to 1 μM and less than 10 μM; and “C” indicates a DC50 of greater than or equal to 10 μM.

T1 sequence (P01116 1-188 isoform P01116-2 G12D): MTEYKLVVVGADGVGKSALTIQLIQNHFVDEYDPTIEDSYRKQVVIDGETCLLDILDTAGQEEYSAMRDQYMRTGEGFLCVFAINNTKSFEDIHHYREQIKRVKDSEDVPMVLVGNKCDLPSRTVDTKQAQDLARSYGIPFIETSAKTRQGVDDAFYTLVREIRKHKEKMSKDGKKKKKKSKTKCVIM

DC50 | SMILES
C (DC50 greater than or equal to 10 μM) | C#Cc1c(F)ccc2cc(O)cc(-c3ncc4c(N5CC6CCC(C5)N6)nc(OC[C@@]56CCCN5[C@H](COC(=O)NCCCCCc5ccc7c(c5)n(C)c(=O)n7C5CCC(=O)NC5=O)CC6)nc4c3F)c12 (stereo partly drawn) [Compound 005, [(3S,8S)-8-[[4-(3,8-diazabicyclo[3.2.1]octan-3-yl)-7-(8-ethynyl-7-fluoro-3-hydroxy-1-napht-hyl)-8-fluoro-pyrido[4,3-d]pyrimidin-2-yl]oxymethyl]-1,2,3,5,6,7-hexahydropyrrolizin-3-yl]methyl N-[5-[1-(2,6-dioxo-3-piperidyl)-3-methyl-2-oxo-benzimidazol-5-yl]pentyl]carbamate]
C (DC50 greater than or equal to 10 μM) | C#Cc1c(F)ccc2cc(O)cc(-c3ncc4c(N5C[C@H]6CC[C@@H](C5)N6)nc(OC[C@@]56CCCN5[C@H](COC(=O)NCCCCc5ccc7c(c5)n(C)c(=O)n7C5CCC(=O)NC5=O)CC6)nc4c3F)c12 (stereo partly drawn) [Compound 006, ((3S,7aS)-7a-(((4-((1R,5S)-3,8-diazabicyclo[3.2.1]octan-3-yl)-7-(8-ethynyl-7-fluoro-3-hydroxynaphthalen-1-yl)-8-fluoropyrido[4,3-d]pyrimidin-2-yl)oxy)methyl)hexahydro-1H-pyrrolizin-3-yl)methyl (4-(1-(2,6-dioxopiperidin-3-yl)-3-methyl-2-oxo-2,3-dihydro-1H-benzo[d]imidazol-5-yl)butyl)carbamate]
A (DC50 less than 1 μM) | C#Cc1c(F)ccc2cc(O)cc(-c3ncc4c(N5CC6CCC(C5)N6)nc(OC[C@@]56CCCN5[C@H](COC(=O)NCCCCCCCCCc5ccc7c(c5)n(C)c(=O)n7C5CCC(=O)NC5=O)CC6)nc4c3F)c12 (stereo partly drawn) [Compound 010, [(3S,8S)-8-[[4-(3,8-diazabicyclo[3.2.1]octan-3-yl)-7-(8-ethynyl-7-fluoro-3-hydroxy-1-naphthyl)-8-fluoro-pyrido[4,3-d]pyrimidin-2-yl]oxymethyl]-1,2,3,5,6,7-hexahydropyrrolizin-3-yl]methyl N-[9-[1-(2,6-dioxo-3-piperidyl)-3-methyl-2-oxo-benzimidazol-5-yl]nonyl]carbamate]

The next lines start with the compound.

SMILES | DC50
C#Cc1c(F)ccc2cc(O)cc(-c3ncc4c(N5CC6CCC(C5)N6)nc(OC[C@@]56CCCN5[C@H](COC(=O)NCCCc5cccc7c5n(C)c(=O)n7C5CCC(=O)NC5=O)CC6)nc4c3F)c12 (stereo partly drawn) [Compound 003, [(3S,8S)-8-[[4-(3,8-diazabicyclo[3.2.1]octan-3-yl)-7-(8-ethynyl-7-fluoro-3-hydroxy-1-naphthyl)-8-fluoro-pyrido[4,3-d]pyrimidin-2-yl]oxymethyl]-1,2,3,5,6,7-hexahydropyrrolizin-3-yl]methylN-[3-[1-(2,6-dioxo-3-piperidyl)-3-methyl-2-oxo-benzimidazol-4-yl]propyl]carbamate] | C (DC50 greater than or equal to 10 μM)
C#Cc1c(F)ccc2cc(O)cc(-c3ncc4c(N5CC6CCC(C5)N6)nc(OC[C@@]56CCCN5[C@H](COC(=O)NCCc5cccc7c5n(C)c(=O)n7C5CCC(=O)NC5=O)CC6)nc4c3F)c12 (stereo partly drawn) [Compound 004, [(3S,8S)-8-[[4-(3,8-diazabicyclo[3.2.1]octan-3-yl)-7-(8-ethynyl-7-fluoro-3-hydroxy-1-naphthyl)-8-fluoro-pyrido[4,3-d]pyrimidin-2-yl]oxymethyl]-1,2,3,5,6,7-hexahydropyrrolizin-3-yl]methyl N-[2-[1-(2,6-dioxo-3-piperidyl)-3-methyl-2-oxo-benzimidazol-4-yl]ethyl]carbamate] | C (DC50 greater than or equal to 10 μM)
C#Cc1c(F)ccc2cc(O)cc(-c3ncc4c(N5CC6CCC(C5)N6)nc(OC[C@@]56CCCN5[C@H](COC(=O)NCCCCCc5cccc7c5n(C)c(=O)n7C5CCC(=O)NC5=O)CC6)nc4c3F)c12 (stereo partly drawn) [Compound 007, [(3S,8S)-8-[[4-(3,8-diazabicyclo[3.2.1]octan-3-yl)-7-(8-ethynyl-7-fluoro-3-hydroxy-1-naphthyl)-8-fluoro-pyrido[4,3-d]pyrimidin-2-yl]oxymethyl]-1,2,3,5,6,7-hexahydropyrrolizin-3-yl]methyl N-[5-[1-(2,6-dioxo-3-piperidyl)-3-methyl-2-oxo-benzimidazol-4-yl]pentyl]carbamate] | C (DC50 greater than or equal to 10 μM)
C#Cc1c(F)ccc2cc(O)cc(-c3ncc4c(N5C[C@H]6CC[C@@H](C5)N6)nc(OC[C@@]56CCCN5[C@H](COC(=O)NCCCCc5cccc7c5n(C)c(=O)n7C5CCC(=O)NC5=O)CC6)nc4c3F)c12 (stereo partly drawn) [Compound 008, ((3S,7aS)-7a-(((4-((1R,5S)-3,8-diazabicyclo[3.2.1]octan-3-yl)-7-(8-ethynyl-7-fluoro-3-hydroxynaphthalen-1-yl)-8-fluoropyrido[4,3-d]pyrimidin-2-yl)oxy)methyl)hexahydro-1H-pyrrolizin-3-yl)methyl (4-(1-(2,6-dioxopiperidin-3-yl)-3-methyl-2-oxo-2,3-dihydro-1H-benzo[d]imidazol-4-yl)butyl)carbamate] | B (DC50 greater than or equal to 1 μM and less than 10 μM)
C#Cc1c(F)ccc2cc(O)cc(-c3ncc4c(N5CC6CCC(C5)N6)nc(OC[C@@]56CCCN5[C@H](COC(=O)NCCCCCCCCCCCc5ccc7c(c5)n(C)c(=O)n7C5CCC(=O)NC5=O)CC6)nc4c3F)c12 (stereo partly drawn) [Compound 009, [(3S,8S)-8-[[4-(3,8-diazabicyclo[3.2.1]octan-3-yl)-7-(8-ethynyl-7-fluoro-3-hydroxy-1-naphthyl)-8-fluoro-pyrido[4,3-d]pyrimidin-2-yl]oxymethyl]-1,2,3,5,6,7-hexahydropyrrolizin-3-yl]methyl N-[11-[1-(2,6-dioxo-3-piperidyl)-3-methyl-2-oxo-benzimidazol-5-yl]undecyl]carbamate] | A (DC50 less than 1 μM)
C#Cc1c(F)ccc2cc(O)cc(-c3ncc4c(N5CC6CCC(C5)N6)nc(OC[C@@]56CCCN5[C@H](COC(=O)NCCCCCCCCCCCc5cccc7c5n(C)c(=O)n7C5CCC(=O)NC5=O)CC6)nc4c3F)c12 (stereo partly drawn) [Compound 011, [(3S,8S)-8-[[4-(3,8-diazabicyclo[3.2.1]octan-3-yl)-7-(8-ethynyl-7-fluoro-3-hydroxy-1-naphthyl)-8-fluoro-pyrido[4,3-d]pyrimidin-2-yl]oxymethyl]-1,2,3,5,6,7-hexahydropyrrolizin-3-yl]methylN-[11-[1-(2,6-dioxo-3-piperidyl)-3-methyl-2-oxo-benzimidazol-4-yl]undecyl]carbamate] | A (DC50 less than 1 μM)
C#Cc1c(F)ccc2cc(O)cc(-c3ncc4c(N5CC6CCC(C5)N6)nc(OC[C@@]56CCCN5[C@H](COC(=O)NCCCCCCCCCc5cccc7c5n(C)c(=O)n7C5CCC(=O)NC5=O)CC6)nc4c3F)c12 (some centres unmarked) [Compound 012] | A (DC50 less than 1 μM)
C#Cc1c(F)ccc2cc(O)cc(-c3ncc4c(N5C[C@H]6CC[C@@H](C5)N6)nc(OC[C@@]56CCCN5[C@H](COC(=O)NCCCCCCCCCCc5ccc7c(c5)n(C)c(=O)n7C5CCC(=O)NC5=O)CC6)nc4c3F)c12 (stereo partly drawn) [Compound 013, ((3S,7aS)-7a-(((4-((1R,5S)-3,8-diazabicyclo[3.2.1]octan-3-yl)-7-(8-ethynyl-7-fluoro-3-hydroxynaphthalen-1-yl)-8-fluoropyrido[4,3-d]pyrimidin-2-yl)oxy)methyl)hexahydro-1H-pyrrolizin-3-yl)methyl (10-(1-(2,6-dioxopiperidin-3-yl)-3-methyl-2-oxo-2,3-dihydro-1H-benzo[d]imidazol-5-yl)decyl) carbamate] | A (DC50 less than 1 μM)
